This experiment deals with T1, human TrkA (Homo sapiens, UniProt P04629).
T1 construct: purchased Lifetechnologies PV3144
In words: Human TrkA inhibition assay. The following applies: human TrkA phosphorylation inhibition, ATP 500 μmol/L. The format is biochemical. Here is the method: Seven point five L per well of human TrkA (PV3144, Lifetechnologies, final concentration: 1 nmol/L) suspended in the assay buffer (100 mmol/L 4-(2-hydroxyethyl)-1-piperazineethanesulfonic acid (HEPES), 10 mmol/L magnesium chloride, 0.003 vol % Brij-35, 0.004 vol % Tween20 and 1 mmol/L dithiothreitol (DTT)) was applied in a 384 well plate and the plate was pre-incubated for 15 min at room temperature with 0.4 μL of each compound (final concentration: 200 μmol/L-0.1 nM) dissolved in DMSO. Then, fluorescent substrate (FL-peptide 27, 760424, PerkinElmer, final concentration: 1.5 μmol/L) and ATP (final concentration 500 μmol/L) dissolved in the assay buffer was added in each well. After the incubation of 120 min at 37° C., fifteen μL of termination buffer (100 mmol/L HEPES, 40 mmol/L ethylenediaminetetraacetic acid (EDTA), 10 mmol/L magnesium chloride, 0.003 vol % Brij-35, 0.004 vol % Tween20, 1 mmol/L DTT and 0.16 vol % Coating Reagent 3) was added in each well to stop the enzyme reaction. Fluorescent intensities (FI) of phosphorylated and non-phosphorylated fluorescent substrates were measured by LabChip EZReader II (Caliper LifeSciences, Inc.), and conversion ratio (CR) was calculated by the following formula-1. The CR in the well applied with DMSO alone was used as a negative control and the CR in the well without applying TrkA was used as a positive control. The inhibitory effect of each compound on TrkA phosphorylation was calculated by the following formula-2. CR (%)=(FI of phosphorylated substrate/(FI of phosphorylated substrate+FI of non-phosphorylated substrate))×100 (Formula-1) Phosphorylation inhibition (%)=(1−(CR with compound treatment−CR of positive control)/(CR of negative control−CR of positive control))×100 (Formula-2)
IC50 values (nmol/L) were determined by the logistic regression using the inhibition data in 10 points of 3-fold dilution series at a compound concentration range of 2 μmol/L to 0.1 nmol/L, or 15 points of 3-fold dilution series at the range of 200 μmol/L to 0.04 nmol/L.

SMILES strings stand for the structures. Where two headings read alike, the source gives them in different places. A value given as a limit tells only on which side of the number the result lay.

T1 sequence (P04629 33-796): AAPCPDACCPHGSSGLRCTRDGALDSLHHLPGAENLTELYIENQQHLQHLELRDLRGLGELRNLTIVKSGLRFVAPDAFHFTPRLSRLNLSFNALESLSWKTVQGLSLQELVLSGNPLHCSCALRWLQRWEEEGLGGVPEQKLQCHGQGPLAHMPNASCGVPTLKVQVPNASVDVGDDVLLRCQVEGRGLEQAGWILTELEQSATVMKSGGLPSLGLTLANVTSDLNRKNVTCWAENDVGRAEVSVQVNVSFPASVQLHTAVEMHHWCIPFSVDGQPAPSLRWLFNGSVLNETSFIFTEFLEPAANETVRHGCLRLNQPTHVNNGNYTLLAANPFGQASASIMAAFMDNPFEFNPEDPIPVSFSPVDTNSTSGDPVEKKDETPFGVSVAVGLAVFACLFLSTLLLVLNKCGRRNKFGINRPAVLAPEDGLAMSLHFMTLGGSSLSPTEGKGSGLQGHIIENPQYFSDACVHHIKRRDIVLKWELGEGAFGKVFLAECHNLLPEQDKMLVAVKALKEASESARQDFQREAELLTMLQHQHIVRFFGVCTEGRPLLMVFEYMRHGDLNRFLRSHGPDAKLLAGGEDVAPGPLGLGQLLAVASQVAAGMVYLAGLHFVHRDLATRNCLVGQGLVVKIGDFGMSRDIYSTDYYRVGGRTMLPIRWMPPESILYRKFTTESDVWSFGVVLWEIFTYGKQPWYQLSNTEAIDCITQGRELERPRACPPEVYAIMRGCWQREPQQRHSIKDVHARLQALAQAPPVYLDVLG

On to `COCC[C@@H]1C[C@@H](NC(=O)Nc2c(C)c(-c3cc(C(=O)NO)c(=O)n(C)c3)nn2-c2ccccc2)[C@H](c2ccccc2)C1` [Compound I-120], for which, under “read-out: IC50_nM”, the IC50 was < 100 nM.

With `COCC[C@@H]1C[C@@H](NC(=O)Nc2c(C)c(-c3cc(C#N)c(=O)n(C)c3)nn2-c2ccccc2)[C@H](c2ccccc2)C1` [Compound I-154], the IC50 (read-out: IC50_nM) is < 100 nM.

In the case of `COCCN1C[C@@H](NC(=O)Nc2c(C)c(-c3cnc(OC)c(C(=O)NC4CCS(=O)(=O)CC4)c3)nn2-c2ccccc2)[C@H](c2ccccc2)C1` (racemic) [Compound I-79], the IC50 (read-out: IC50_nM) is < 100 nM. In the case of `CNC(=O)c1cc(-c2nn(-c3ccccc3)c(NC(=O)N[C@@H]3CN(CCOC)C[C@H]3c3ccccc3)c2C)cnc1OCCO` (racemic) [Compound I-123], under “read-out: IC50_nM”, the IC50 is < 100 nM. Regarding `COCCN1C[C@@H](NC(=O)Nc2c(C)c(-c3ccnc(C(=O)N[C@@H]4CCOC4)c3)nn2-c2ccccc2)[C@H](c2ccccc2)C1` [Compound I-86], the IC50 (read-out: IC50_nM) was < 100 nM.

Regarding `COCCN1C[C@@H](NC(=O)Nc2c(C)c(-c3cnc(OCC(F)F)c(C(=O)NC4CCOCC4)c3)nn2-c2ccccc2)[C@H](c2ccccc2)C1` (racemic) [Compound I-142], the IC50 (read-out: IC50_nM) was < 100 nM. `COCCN1C[C@@H](NC(=O)Nc2c(C)c(-c3ccc(N=S(C)(C)=O)nc3)nn2-c2ccccc2)[C@H](c2ccc(F)c(F)c2)C1` [Compound I-151]: the IC50 (read-out: IC50 value) came out at 1.5 nM.

For the compound `COCC[C@@H]1C[C@@H](NC(=O)Nc2c(C)c(-c3cnc4c(c3)oc(=O)n4C)nn2-c2ccccc2)[C@H](c2ccnc(F)c2)N1C` [Compound I-170], under “read-out: IC50_nM”, the IC50 was < 100 nM. The same measure, in the same setting: the result for `COCCN1C[C@@H](NC(=O)Nc2c(C)c(-c3cnc4nccnc4c3)nn2-c2ccccc2)[C@H](c2ccccc2)C1` (racemic) [Compound I-135] reads < 100 nM; that for `COCCN1C[C@@H](NC(=O)Nc2c(C)c(-c3cnn(C)c3)nn2-c2ccccc2)[C@H](c2ccnc(F)c2)C1` (racemic) [Compound I-2], < 100 nM; that for `COCCN1C[C@@H](NC(=O)Nc2c(C)c(-c3ccc(N=S(C)(C)=O)nc3)nn2-c2ccccc2)[C@H](c2ccccc2)C1` (racemic) [Compound I-91], < 100 nM. With `COCCN1C[C@@H](NC(=O)Nc2c(C)c(-c3cnn(C)c3)nn2-c2ccccc2)[C@H](c2cc(F)nc(Cl)c2)C1` (racemic) [Compound I-39], the IC50 (read-out: IC50_nM) was < 100 nM. For `COCCN1C[C@@H](NC(=O)Nc2c(C)c(-c3ccnc(C(=O)N[C@@H]4CCCOC4)c3)nn2-c2ccccc2)[C@H](c2ccccc2)C1` (mixture of isomers) [Compound I-72], the IC50 (read-out: IC50_nM) was < 100 nM. As to `CNC(=O)c1ncc(-c2nn(-c3ccccc3)c(NC(=O)N[C@@H]3CN(CCOC)C[C@H]3c3ccccc3)c2C)cc1C` (racemic) [Compound I-61], the IC50 (read-out: IC50_nM) was < 100 nM. With `COCCN1C[C@@H](NC(=O)Nc2c(C)c(-c3ccnc(C(=O)NC4CCS(=O)(=O)CC4)c3)nn2-c2ccccc2)[C@H](c2ccccc2)C1` (racemic) [Compound I-73], under “read-out: IC50_nM”, the IC50 is < 100 nM. Take `COCCN1C[C@@H](NC(=O)Nc2c(C)c(-c3cnn(C)c3)nn2-c2ccccc2)[C@H](c2cnc(Cl)s2)C1` (racemic) [Compound I-62]: the IC50 (read-out: IC50_nM) is < 100 nM. For `COCCN1C[C@@H](NC(=O)Nc2c(C)c(-c3cnc(OC)c(C(N)=O)c3)nn2-c2ccccc2)[C@H](c2ccccc2)C1` (racemic) [Compound I-161], for the setting “read-out: IC50_nM”, the IC50 was < 100 nM. Regarding `COCCN1C[C@@H](NC(=O)Nc2c(C)c(-c3ccnc(C(=O)NC[C@@H](C)O)c3)nn2-c2ccccc2)[C@H](c2ccccc2)C1` [Compound I-75], the IC50 (read-out: IC50_nM) is < 100 nM.

For the compound `COCCN1C[C@@H](NC(=O)Nc2c(C)c(-c3cnc(OCCO)nc3)nn2-c2ccccc2)[C@H](c2ccccc2)C1` (racemic) [Compound I-31], the IC50 (read-out: IC50_nM) was < 100 nM. On to `COCCN1C[C@@H](NC(=O)Nc2c(C)c(-c3cnc4c(c3)c(N=S(C)(C)=O)nn4C)nn2-c2ccccc2)[C@H](c2ccc(F)c(F)c2)C1` [Compound I-163], for which the IC50 (read-out: IC50_nM) is < 100 nM.

For `COCCN1C[C@@H](NC(=O)Nc2c(C)c(-c3cnc(OC)c(C(=O)NC(=O)N(C)C)c3)nn2-c2ccccc2)[C@H](c2ccccc2)C1` (racemic) [Compound I-158], the IC50 (read-out: IC50_nM) is < 100 nM.

In the case of `COCCN1C[C@@H](NC(=O)Nc2c(C)c(-c3cnc4c(cnn4C)c3)nn2-c2ccccc2)[C@H](c2ccnc(F)c2)C1` (racemic) [Compound I-90], the IC50 (read-out: IC50 value) worked out at 2.2 nM.

As for `COCCN1C[C@@H](NC(=O)Nc2c(C)c(-c3cnc(OC)c(C(=O)NC4CCOCC4)c3)nn2-c2ccccc2)[C@H](c2ccccc2)C1` (racemic) [Compound I-57], the IC50 (read-out: IC50 value) amounted to 1 nM. For the compound `CCN1CCC(NC(=O)c2ccc(-c3nn(-c4ccccc4)c(NC(=O)N[C@@H]4C[C@@H](CCOC)N(C)[C@H]4c4ccc(F)c(F)c4)c3C)cc2)CC1` [Compound I-25], where the note is “read-out: IC50_nM”, the IC50 was < 100 nM.

Turning to `COCCN1C[C@@H](NC(=O)Nc2c(C)c(-c3cnc4cccnc4c3)nn2-c2ccccc2)[C@H](c2ccccc2)C1` (racemic) [Compound I-137], the IC50 (read-out: IC50_nM) was < 100 nM. Same read-out and setting: the result for `COCCN1C[C@@H](NC(=O)Nc2c(C)c(-c3cnc(OC)c(C(=O)N[C@H]4CCOC4)c3)nn2-c2ccccc2)[C@H](c2ccccc2)C1` [Compound I-80] reads < 100 nM. Regarding `COCC[C@@H]1C[C@@H](NC(=O)Nc2c(C)c(C)nn2-c2ccccc2)[C@H](c2ccnc(F)c2)N1C` [Compound I-178], the IC50 (read-out: IC50_nM) was < 100 nM.

On to `COCC[C@@H]1C[C@@H](NC(=O)Nc2c(C)c(-c3cnc(N4CC(OC)C4)nc3)nn2-c2ccccc2)[C@H](c2ccnc(F)c2)N1C` [Compound I-180], for which the IC50 (read-out: IC50_nM) is < 100 nM. Still for that read-out and setting: the result for `CCNC(=O)c1cc(-c2nn(-c3ccccc3)c(NC(=O)N[C@@H]3CN(CCOC)C[C@H]3c3ccccc3)c2C)cnc1OCF` (racemic) [Compound I-132] reads < 100 nM. Take `COCC[C@@H]1C[C@@H](NC(=O)Nc2c(C)c(-c3ccc4c(cnn4C)c3)nn2-c2ccccc2)[C@H](c2ccccc2)C1` [Compound I-21]: the IC50 (read-out: IC50_nM) is < 100 nM. On to `COCCN1C[C@@H](NC(=O)Nc2c(C)c(-c3cnn(C)c3)nn2-c2ccccc2)[C@H](c2cc(Cl)nc(Cl)c2)C1` (racemic) [Compound I-4], for which, for the setting “read-out: IC50_nM”, the IC50 fell in the range of 100 to 1000 nM. For `COCCN1C[C@@H](NC(=O)Nc2c(C)c(N3CCc4nn(C)cc4C3)nn2-c2ccccc2)[C@H](c2ccccc2)C1` [Compound I-59], the IC50 (read-out: IC50_nM) was < 100 nM. For the compound `CCN1CCC(NC(=O)c2cc(-c3nn(-c4ccccc4)c(NC(=O)N[C@@H]4CN(CCOC)C[C@H]4c4ccccc4)c3C)ccn2)CC1` (racemic) [Compound I-43], the IC50 (read-out: IC50_nM) is < 100 nM.

Regarding `COCC[C@@H]1C[C@@H](NC(=O)Nc2c(C)c(-c3cc(C(=O)O)c(=O)n(C)c3)nn2-c2ccccc2)[C@H](c2ccccc2)C1` [Compound I-149], where the note is “read-out: IC50_nM”, the IC50 is < 100 nM. In the case of `COCCN1C[C@@H](NC(=O)Nc2c(C)c(-c3cnc4c(c3)c(C(=O)OC)nn4C)nn2-c2ccccc2)[C@H](c2ccccc2)C1` (racemic) [Compound I-64], the IC50 (read-out: IC50_nM) is < 100 nM.

Regarding `COCCN1C[C@@H](NC(=O)Nc2c(C)c(-c3ccnc(C(=O)NOC)c3)nn2-c2ccccc2)[C@H](c2ccc(F)c(F)c2)C1` [Compound I-156], the IC50 (read-out: IC50_nM) is < 100 nM. For `COCC[C@@H]1C[C@@H](NC(=O)Nc2c(C)c(-c3ccc(N=S(C)(C)=O)nc3)nn2-c2ccccc2)[C@H](c2ccccc2)C1` [Compound I-152], the IC50 (read-out: IC50_nM) is < 100 nM.

In the case of `COCCN1C[C@@H](NC(=O)Nc2c(C)c(-c3ccnc(C(N)=O)c3)nn2-c2ccccc2)[C@H](c2ccccc2)C1` (racemic) [Compound I-44], the IC50 (read-out: IC50_nM) is < 100 nM. In the case of `COCCN1C[C@@H](NC(=O)Nc2c(C)c(-c3cnn(C)c3)nn2-c2ccccc2)[C@H](c2cnc(Cl)c(F)c2)C1` (racemic) [Compound I-16], the IC50 (read-out: IC50_nM) is < 100 nM. Regarding `COCCN1C[C@@H](NC(=O)Nc2c(C)c(-c3ccc(C(=O)NC4CCOCC4)nc3)nn2-c2ccccc2)[C@H](c2ccccc2)C1` (racemic) [Compound I-41], the IC50 (read-out: IC50_nM) is < 100 nM. On to `COCCN1C[C@@H](NC(=O)Nc2c(C)c(-c3cnc4c(c3)c(C)nn4C)nn2-c2ccccc2)[C@H](c2ccccc2)C1` (racemic) [Compound I-89], for which the IC50 (read-out: IC50_nM) is < 100 nM. Take `COCCN1C[C@@H](NC(=O)Nc2c(C)c(-c3cnc4c(c3)c(C)nn4C)nn2-c2ccccc2)[C@H](c2ccnc(F)c2)C1` (racemic) [Compound I-104]: where the note is “read-out: IC50_nM”, the IC50 was < 100 nM.

On to `CNC(=O)c1cc(-c2nn(-c3ccccc3)c(NC(=O)N[C@@H]3CN(CCOC)C[C@H]3c3ccccc3)c2C)cnc1OC(F)F` (racemic) [Compound I-128], for which the IC50 (read-out: IC50_nM) is < 100 nM.

These data come from patent US10533006B2, “Nitrogen-containing heterocycle and carbocycle derivatives having TrkA inhibitory activity” (Shionogi & Co., Ltd., priority 2016, dated 2020).
